Data taken from ChEMBL document CHEMBL1124202, “Synthesis and evaluation of multisubstrate inhibitors of an oncogene-encoded tyrosine-specific protein kinase. 2” (J Med Chem, 1988).

The compounds below were run against T1, Tyrosine-protein kinase transforming protein Abl (Abelson murine leukemia virus, UniProt P00521) (assay: Inhibition of p60v-abl tyrosine kinase from Abelson murine leukemia virus).
T1 sequence (P00521 whole entry): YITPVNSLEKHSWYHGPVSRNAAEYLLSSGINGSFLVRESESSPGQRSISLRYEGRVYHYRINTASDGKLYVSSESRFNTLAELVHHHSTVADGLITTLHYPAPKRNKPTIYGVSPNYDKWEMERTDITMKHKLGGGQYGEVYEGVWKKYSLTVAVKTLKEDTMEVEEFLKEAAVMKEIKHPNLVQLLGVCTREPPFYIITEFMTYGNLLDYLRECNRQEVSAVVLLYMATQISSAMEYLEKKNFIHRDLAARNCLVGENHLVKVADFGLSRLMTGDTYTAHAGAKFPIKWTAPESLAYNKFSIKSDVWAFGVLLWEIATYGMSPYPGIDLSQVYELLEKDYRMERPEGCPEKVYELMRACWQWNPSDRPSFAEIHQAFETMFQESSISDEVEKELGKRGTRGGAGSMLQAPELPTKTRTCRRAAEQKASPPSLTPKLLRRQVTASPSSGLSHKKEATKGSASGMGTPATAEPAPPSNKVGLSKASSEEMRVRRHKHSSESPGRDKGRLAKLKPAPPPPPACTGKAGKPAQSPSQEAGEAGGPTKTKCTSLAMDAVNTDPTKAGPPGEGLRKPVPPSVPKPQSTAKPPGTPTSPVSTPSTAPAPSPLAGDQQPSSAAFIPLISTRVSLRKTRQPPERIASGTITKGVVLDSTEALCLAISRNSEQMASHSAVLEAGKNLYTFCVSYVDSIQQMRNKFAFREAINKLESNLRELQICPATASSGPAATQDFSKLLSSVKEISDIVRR
In the case of CC(=O)NCCNP(=O)(O)OP(=O)(O)OP(=O)(O)OC[C@H]1O[C@@H](n2cnc3c(N)ncnc32)[C@H](O)[C@@H]1O, the IC50 is reported as 25 µM.
COc1ccc(CNP(=O)(O)OP(=O)(O)OP(=O)(O)OC[C@H]2OC(n3cnc4c(N)ncnc43)[C@H](O)[C@@H]2O)cc1 (stereo partly drawn) gave an IC50 of 90 µM.
In the case of Cc1ccc(NP(=O)(O)OP(=O)(O)OP(=O)(O)OP(=O)(O)OC[C@H]2O[C@@H](n3cnc4c(N)ncnc43)[C@H](O)[C@@H]2O)cc1, the IC50 is reported as 16 µM.
For Cc1ccc(NP(=O)(O)OP(=O)(O)OP(=O)(O)OC[C@H]2O[C@@H](n3cnc4c(N)ncnc43)[C@H](O)[C@@H]2O)cc1, the IC50 was 150 µM.
Work on Nc1ncnc2c1ncn2[C@@H]1O[C@H](COP(=O)(O)OP(=O)(O)OP(=O)(O)Oc2ccccc2)[C@@H](O)[C@H]1O yielded an IC50 of 13 µM.
Nc1ncnc2c1ncn2[C@@H]1O[C@H](COP(=O)(O)OP(=O)(O)OP(=O)(O)OP(=O)(O)Oc2ccccc2)[C@@H](O)[C@H]1O showed an IC50 of 41 µM.
Work on CC(=O)NC(Cc1ccc(NP(=O)(O)OP(=O)(O)OP(=O)(O)OP(=O)(O)OC[C@H]2O[C@@H](n3cnc4c(N)ncnc43)[C@H](O)[C@@H]2O)cc1)C(N)=O (stereo partly drawn) yielded an IC50 of 110 µM.
Compound CC(=O)NC(Cc1ccc(NP(=O)(O)OP(=O)(O)OP(=O)(O)OC[C@H]2O[C@@H](n3cnc4c(N)ncnc43)[C@H](O)[C@@H]2O)cc1)C(N)=O (stereo partly drawn) has an IC50 of 44 µM.
